From ChEMBL document CHEMBL5113529, “Design, Synthesis, and Biological Evaluation of Dual-Target COX-2/CYP51 Inhibitors for the Treatment of Fungal Infectious Diseases” (J Med Chem, 2022)
pIC50: −log10 of the molar value. Values after ≈ are worked out from the molar mass of the structure shown. Active and inactive are the calls of the source. The calls are words filed in the database; no cut-off is given here.

What was measured:
[1] = system: Candida albicans; test: Antifungal actvity against Candida albicans ATCC SC5314 infected in mouse assessed as reduction in fungal infection at 10 ug per 20 g, ip administered on day 2, 4, 6, 8, 10 and 12 and measured on day 14; format: functional, organism-based; details: dose 10.0 µg, time 14.0 day
[2] = system: Cryptococcus neoformans; test: Antifungal activity against Cryptococcus neoformans ZKCC 2209 assessed as fungal growth inhibition measured after 72 hrs by double dilution method; format: functional
[3] = system: Candida albicans; test: Antifungal activity against Candida albicans ATCC SC5314 assessed as fungal growth inhibition measured after 72 hrs by double dilution method; format: functional
[4] = system: Candida albicans; test: Antifungal activity against fluconazole- resistant Candida albicans 17# assessed as fungal growth inhibition measured after 72 hrs by double dilution method; format: functional
[5] = system: Pichia kudriavzevii; test: Antifungal activity against Candida krusei ATCC 6258 assessed as fungal growth inhibition measured after 72 hrs by double dilution method; format: functional
[6] = system: Candida tropicalis; test: Antifungal activity against Candida tropicalis ATCC 1369 assessed as fungal growth inhibition measured after 72 hrs by double dilution method; format: functional
[7] = system: Aspergillus fumigatus; test: Antifungal activity against Aspergillus fumigatus KM8001 assessed as fungal growth inhibition measured after 72 hrs by double dilution method; format: functional
[8] = system: Candida albicans; test: Antifungal activity against fluconazole -resistant Candida albicans CaR assessed as fungal growth inhibition measured after 72 hrs by double dilution method; format: functional
[9] = system: Candida albicans; test: Antifungal activity against fluconazole -resistant Candida albicans 632 assessed as fungal growth inhibition measured after 72 hrs by double dilution method; format: functional
[10] = system: Candida albicans; test: Antifungal activity against fluconazole -resistant Candida albicans 901 assessed as fungal growth inhibition measured after 72 hrs by double dilution method; format: functional
[11] = system: Candida albicans; test: Antifungal activity against fluconazole -resistant Candida albicans 904 assessed as fungal growth inhibition measured after 72 hrs by double dilution method; format: functional
[12] = biological target: T1, Lanosterol 14-alpha demethylase (Candida albicans (strain SC5314 / ATCC MYA-2876) (Yeast), UniProt P10613); test: Inhibition of CYP51 in Candida albicans SC5314 using Eburicol as substrate preincubated for 20 mins followed by substrate addition and measured after 4 mins by HPLC analysis; format: single protein
T1 sequence (P10613 whole entry): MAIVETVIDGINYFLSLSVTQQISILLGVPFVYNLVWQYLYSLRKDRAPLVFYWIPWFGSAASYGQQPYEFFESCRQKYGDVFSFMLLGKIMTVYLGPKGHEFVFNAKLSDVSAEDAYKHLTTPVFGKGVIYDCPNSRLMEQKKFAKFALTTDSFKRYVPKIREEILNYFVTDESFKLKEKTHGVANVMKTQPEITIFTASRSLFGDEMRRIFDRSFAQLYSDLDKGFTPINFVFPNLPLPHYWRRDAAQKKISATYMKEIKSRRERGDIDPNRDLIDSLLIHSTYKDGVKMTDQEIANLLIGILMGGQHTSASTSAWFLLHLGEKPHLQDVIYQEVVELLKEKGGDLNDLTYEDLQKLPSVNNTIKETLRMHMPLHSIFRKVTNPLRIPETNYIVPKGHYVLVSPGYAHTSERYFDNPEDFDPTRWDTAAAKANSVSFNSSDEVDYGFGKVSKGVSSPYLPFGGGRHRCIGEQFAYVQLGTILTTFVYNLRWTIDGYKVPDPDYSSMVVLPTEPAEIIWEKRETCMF

[13] = Toxicity in mouse infected with Candida albicans assessed as AST level in plasma at 10 ug per 20 g, ip administered on day 2, 4, 6, 8, 10 and 12 and measured on day 14 (reference value: 74.9 +/- 6.7 IU/L); format: organism-based; details: in vivo, 336 h, dose 10 µg, time 14 day
[14] = Toxicity in mouse infected with Candida albicans assessed as ALT level in plasma at 10 ug per 20 g, ip administered on day 2, 4, 6, 8, 10 and 12 and measured on day 14 (reference value: 43.6 +/- 4.4 IU/L); format: organism-based; details: in vivo, 336 h, dose 10 µg, time 14 day
[15] = Toxicity in mouse infected with Candida albicans assessed as BUN level in plasma at 10 ug per 20 g, ip administered on day 2, 4, 6, 8, 10 and 12 and measured on day 14 (reference value: 8.2 +/- 0.5 mmol/L); format: organism-based; details: in vivo, 336 h, dose 10 µg, time 14 day
[16] = system: Candida albicans; test: Antifungal activity against Candida albicans ATCC SC5314 assessed as decrease in fungal cell density measured immediately by fluorescence microscopy (reference value: 126%); format: functional; design: scale not given: the % may be the effect or the level left
[17] = system: Candida albicans; test: Antifungal activity against Candida albicans ATCC SC5314 assessed as decrease in fungal cell density measured at 48 hrs by fluorescence microscopy (reference value: 258%); format: functional; design: scale not given: the % may be the effect or the level left
[18] = system: Candida albicans; test: Induction of mitochondrial membrane potential loss in Candida albicans ATCC SC5314 assessed as polarized cells at 1 umol/ml incubated for 24 hrs by JC-1 staining based flow cytometry assay (reference value: 0.69%); format: functional; details: dose 1 µmol/L, at 1 µM
[19] = system: Candida albicans; test: Induction of mitochondrial membrane potential loss in Candida albicans ATCC SC5314 assessed as normal cells at 1 umol/ml incubated for 24 hrs by JC-1 staining based flow cytometry assay (reference value: 95.26%); format: functional; details: dose 1 µmol/L, at 1 µM
[20] = system: Candida albicans; test: Induction of mitochondrial membrane potential loss in Candida albicans ATCC SC5314 assessed as depolarized cells at 1 umol/ml incubated for 24 hrs by JC-1 staining based flow cytometry assay (reference value: 0.76 to 3.29%); format: functional; details: dose 1 µmol/L, at 1 µM
[21] = system: Candida albicans; test: Induction of apoptosis in Candida albicans ATCC SC5314 assessed as normal cells incuabted for 24 hrs by V-FITC/PI staining based flow cytometry analysis (reference value: 96.78%); format: functional
[22] = system: Candida albicans; test: Induction of apoptosis in Candida albicans ATCC SC5314 assessed as mid apoptotic cells incuabted for 24 hrs by V-FITC/PI staining based flow cytometry analysis (reference value: 1.09%); format: functional
[23] = system: Candida albicans; test: Induction of apoptosis in Candida albicans ATCC SC5314 assessed as late apoptotic cells incuabted for 24 hrs by V-FITC/PI staining based flow cytometry analysis (reference value: 0.36%); format: functional
[24] = system: Candida albicans; test: Induction of apoptosis in Candida albicans ATCC SC5314 assessed as necrotic cells incuabted for 24 hrs by V-FITC/PI staining based flow cytometry analysis (reference value: 1.77%); format: functional
[25] = biological target: T1, Lanosterol 14-alpha demethylase; test: Inhibition of CYP51 in Candida albicans ATCC SC5314 assessed as ergosterol level at 4 ug/ml incuabted for 48 hrs by GC-MS analysis (reference value: 96.48%); design: scale not given: the % may be the effect or the level left; details: at 4 µg/mL
[26] = biological target: T1, Lanosterol 14-alpha demethylase; test: Inhibition of CYP51 in Candida albicans ATCC SC5314 assessed as lanosterol level at 4 ug/ml incuabted for 48 hrs by GC-MS analysis relative to control; design: scale not given: the % may be the effect or the level left; details: at 4 µg/mL
[27] = biological target: T1, Lanosterol 14-alpha demethylase; test: Inhibition of CYP51 in Candida albicans ATCC SC5314 assessed as eburicol level at 4 ug/ml incuabted for 48 hrs by GC-MS analysis (reference value: 1.05%); design: scale not given: the % may be the effect or the level left; details: at 4 µg/mL
[28] = biological target: T1, Lanosterol 14-alpha demethylase; test: Inhibition of CYP51 in Candida albicans ATCC SC5314 assessed as unknown sterol level at 4 ug/ml incuabted for 48 hrs by GC-MS analysis (reference value: 2.47%); design: scale not given: the % may be the effect or the level left; details: at 4 µg/mL
[29] = species on record: Mus musculus; test: Antiinflammatory activity against mouse infected with Candida albicans ATCC SC5314 assessed as reduction in COX-2 expression in spleen by Western blot analysis; format: functional; design: scale not given: the % may be the effect or the level left
[30] = species on record: Mus musculus; test: Immunostimulatory activity in mouse infected with Candida albicans ATCC SC5314 assessed as reduction in PD-L1 expression in spleen by western blot analysis relative to control; format: functional; design: scale not given: the % may be the effect or the level left
[31] = species on record: Mus musculus; test: Immunostimulatory activity in mouse infected with Candida albicans ATCC SC5314 assessed as increase in CD3+ expression level in spleen by immunohistochemical analysis; format: functional
[32] = species on record: Mus musculus; test: Immunostimulatory activity in mouse infected with Candida albicans ATCC SC5314 assessed as increase in CD8+ expression level in spleen by immunohistochemical analysis; format: functional
[33] = Toxicity in Candida albicans ATCC SC5314 infected-mouse assessed as effect on body weight at 10 ug per 20 g, ip administered on day 2, 4, 6, 8, 10 and 12 and measured on day 14; format: organism-based; details: in vivo, 336 h, dose 10 µg, time 14 day
[34] = system: Candida albicans; test: Antifungal actvity against Candida albicans ATCC SC5314 infected in mouse assessed as shrinking of infection region at 10 ug per 20 g, ip administered on day 2, 4, 6, 8, 10 and 12 and measured on day 14; format: functional, organism-based; details: dose 10.0 µg, time 14.0 day
[35] = species on record: Mus musculus; test: Antiinflammatory activity against mouse infected with Candida albicans ATCC SC5314 assessed as reduction in NLRP3 expression in spleen by Western blot analysis; format: functional, organism-based

SMILES	Activity [1]	MIC50 [2] [µg/mL]	MIC50 [3] [µg/mL]	MIC50 [4] [µg/mL]	MIC50 [5] [µg/mL]	MIC50 [6] [µg/mL]	MIC50 [7] [µg/mL]	MIC50 [8] [µg/mL]	MIC50 [9] [µg/mL]	MIC50 [10] [µg/mL]	MIC50 [11] [µg/mL]	pIC50 [12]	Activity [13] [IU/L]	Activity [14] [IU/L]	Activity [15] [mmol/L]	Activity [16] [%]	Activity [17] [%]	Activity [18] [%]	Activity [19] [%]	Activity [20] [%]	further results
OC(Cn1cncn1)(Cn1cncn1)c1ccc(F)cc1F [FLUCONAZOLE]	Active	0.5 (≈ 1.63 µM)	0.5 (≈ 1.63 µM)	> 8	1 (≈ 3.27 µM)	0.5 (≈ 1.63 µM)	> 8	> 8	> 8	> 8	> 8	6.85	81.6	37.5	9.7	119	75	0.39	81.14	0.37	Activity [21]: 68.17%; Activity [22]: 0.4%; Activity [23]: 1.56%; Activity [24]: 29.87%; Activity [25]: 13.19%; Activity [26]: 35.17%; Activity [27]: 40.24%; Activity [28]: 11.4%; Activity [29]: 47.23%; Activity [30]: 31.81%; Activity [31]: 2.5; Activity [32]: 2.5
CC(C)NC(=O)[C@@H](Cn1ccnc1)NC(=O)[C@@H](C)c1cccc(C(=O)c2ccccc2)c1	Active	0.5 (≈ 1.16 µM)	0.125 (≈ 0.289 µM)	2 (≈ 4.62 µM)	0.25 (≈ 0.578 µM)	0.5 (≈ 1.16 µM)	2 (≈ 4.62 µM)	1 (≈ 2.31 µM)	4 (≈ 9.25 µM)	2 (≈ 4.62 µM)	4 (≈ 9.25 µM)	6.82	69.8	41.2	12.1	121	72	0.39	62.2	0.76	Activity [33]: Non-Toxic; Activity [34]: Active; Activity [21]: 53.73%; Activity [22]: 2.81%; Activity [23]: 12.5%; Activity [24]: 30.96%; Activity [25]: 11.27%; Activity [26]: 39.58%; Activity [27]: 37.35%; Activity [28]: 11.8%; Activity [29]: 18.41%; Activity [35]: Active; Activity [30]: 9.84%; Activity [31]: Active; Activity [32]: Active
COc1ccc2cc([C@H](C)C(=O)NC(Cn3cncn3)C(=O)c3ccccc3)ccc2c1 (some centres not stated)	Active	0.125 (≈ 0.292 µM)	0.25 (≈ 0.583 µM)	1 (≈ 2.33 µM)	0.25 (≈ 0.583 µM)	0.125 (≈ 0.292 µM)	2 (≈ 4.67 µM)	1 (≈ 2.33 µM)	4 (≈ 9.34 µM)	1 (≈ 2.33 µM)	2 (≈ 4.67 µM)	7.10	75.1	39.4	10.5	115	62	0.81	44.19	3.14	Activity [33]: Non-Toxic; Activity [34]: Active; Activity [21]: 50.92%; Activity [22]: 14.76%; Activity [23]: 22.73%; Activity [24]: 11.59%; Activity [25]: 8.62%; Activity [26]: 46.09%; Activity [27]: 35.68%; Activity [28]: 9.61%; Activity [29]: 11.32%; Activity [35]: Active; Activity [30]: 12.36%; Activity [31]: Active; Activity [32]: Active
